The text below walks through data of patent US10174052B2, “Quinuclidine compounds as α-7 nicotinic acetylcholine receptor ligands” (BRISTOL-MYERS SQUIBB COMPANY, priority 2014, dated 2019).

This assay deals with T1, α7 nicotinic ACh receptor ion channel expressed in mammalian HEK 293 cells (Rattus norvegicus, UniProt Q05941).
T1 construct: expressed in transfected cells
The assay is described as follows: Ca2+-sensitive fluorescence-based assay for α7 nicotinic acetylcholine receptor channel function (FLIPR), agonist activity. The settings on record: HEK 293 cells, Ca2+ flux. The class given is cell-based. The procedure: II) A Ca^2+-Sensitive, Fluorescence-Based Assay α-7 for Nicotinic Acetylcholine Receptor Channel Function in Mammalian Cells (“FLIPR”).
Lead compounds are evaluated for agonist activity at the α7 nicotinic ACh receptor ion channel expressed in mammalian HEK 293 cells. Agonist potency and efficacy values are determined from kinetic fluorescence Ca^2+ influx measurements made using a 384 well FLIPR (Fluorescence Image Plate Reader). The utility of fluorescent indicators for measuring changes in intracellular divalent cation concentrations, particularly Ca^2+, for drug discovery endeavors is well documented (Rudiger, R., et al., Nature Reviews, 2003, 4:579-586; Gonzalez J. E., et al., Receptors and Channels, 2002, 8:283-295). In this assay, channel expressing HEK cell lines seeded in 384 well assay plates are loaded with a membrane permeant fluorescent Ca^2+ indicator dye, whose 510 nm green emission signal increases in response to elevation of intracellular Ca^2+ concentration. The basal fluorescence from the cells is monitored in real time, followed by the acute addition of test compounds. If the compound is an agonist at any of the non-selective cation channels, the latter open and allow the movement of extracellular Ca^2+ ions into the cell cytoplasm, where they bind to the Ca^2+ indicator dye, and produce an increase in fluorescence output signal, which is detected by a cooled CCD imaging camera.
Reagents: The acetomethoxy (AM) ester of the Ca^2+ indicator dye Fluo-4 was obtained from InVitrogen, (Carlsbad, Calif.). Acetylcholine and all buffer constituents were purchased from Sigma Chemical Company, St. Louis, Mo. G418 and Minimal Essential Medium were purchased from InVitrogen Life Technologies, Carlsbad, Calif. Fetal bovine serum was purchased from (InVitrogen, Carlsbad, Calif.).
HEK-293 cells were grown in Minimal Essential Medium containing 10% (v/v) fetal bovine serum at 37° C. in a 5% CO2 incubator. HEK-293 cells stably expressing the ion channels were grown in the same medium with the addition of 500 μg/ml G418.
HEK-293 cells expressing the ion channels of interest were plated in 384 well, black-walled, clear-bottomed, poly-D-lysine coated plates at a density of ˜20,000 cells/well in 20 μl of Minimal Essential Medium containing 10% (v/v) fetal bovine serum and incubated for 2 days at 29° C. in a 5% CO2 incubator. Prior to assay, cells were loaded with the Fluo-4 AM ester. Cell loading was accomplished by removing the culture medium and replacing it with 30 μl/well of the AM ester of the dye (5 μM) mixed with Hanks Balanced Salt Solution (#14175-095) containing 20 mM HEPES, 2.5 mM probenecid, 0.5 mM CaCl2, 1 mM MgCl2 and 10 μM atropine. Dye loading was allowed to proceed for 90 minutes at room temperature at which time the dye loading solution was removed and replaced with 40 μl/well of Hanks buffer. Cells loaded with dye were loaded onto a FLIPR384 (Molecular Devices, Sunnyvale, Calif.). Fluo-4 dye was excited using the 488 nm line of an argon laser. Emission was filtered using a 540+/−30 nm bandpass filter. For evaluation of the effects of test compounds using the Ca^2+ flux assay, compounds to be tested were provided in assay ready plates. For nicotinic receptor ion channel expressing cells, the assay was initiated by the addition of 20 μl/well of Hanks buffer containing test compounds. For all assays, data were collected at 1 Hz for 10 seconds (baseline), at which time the compound containing stimulus buffers are added, and further measurements collected at 0.33 Hz for 3 min.
The statistical robustness of the nicotinic receptor Ca^2+ flux assays is determined from blanks and totals wells. The totals wells define maximal channel activation for each compound test plate (Maximum efficacious dose of acetylcholine), and the blanks wells which contain matched DMSO only, define zero channel activation. […]

[1] abbreviates: FLIPR α7 (EC50, nM), agonist potency.
Where [2] appears, read: FLIPR α7 activity rating (EC50, nM), class rating of EC50.

T1 sequence (Q05941 23-502): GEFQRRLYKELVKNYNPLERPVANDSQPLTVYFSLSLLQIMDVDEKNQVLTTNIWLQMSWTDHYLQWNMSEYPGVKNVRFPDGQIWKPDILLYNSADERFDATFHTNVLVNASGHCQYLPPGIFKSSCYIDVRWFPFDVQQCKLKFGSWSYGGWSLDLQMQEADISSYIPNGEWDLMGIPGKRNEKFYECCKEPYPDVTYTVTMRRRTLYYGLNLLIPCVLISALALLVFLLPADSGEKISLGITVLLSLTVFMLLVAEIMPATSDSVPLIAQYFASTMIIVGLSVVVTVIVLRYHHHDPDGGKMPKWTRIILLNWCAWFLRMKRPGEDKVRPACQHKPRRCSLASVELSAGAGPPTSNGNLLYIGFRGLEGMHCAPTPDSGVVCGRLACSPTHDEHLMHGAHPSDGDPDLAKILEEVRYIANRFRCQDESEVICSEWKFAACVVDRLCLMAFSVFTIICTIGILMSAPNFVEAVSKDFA

With `Clc1nc2n(c1Cl)C[C@]1(CN3CCC1CC3)O2` [Example 2a, (S)-5,6-Dichloro-3H-1′-azaspiro[imidazo[2,1-b]oxazole-2,3′-bicyclo[2.2.2]octane]], the half-maximal effective concentration (EC50) under setting [1] was determined as 1500 nM and the EC50 under setting [2] lay within 1000 to 100000 nM.
For `Clc1nc2n(c1Cl)C[C@@]1(CN3CCC1CC3)O2` [Example 2b, (R)-5,6-Dichloro-3H-1′-azaspiro[imidazo[2,1-b]oxazole-2,3′-bicyclo[2.2.2]octane]], in that order: 14.2 nM and under 100 nM.
For `c1ccc(-c2nc3n(n2)C[C@]2(CN4CCC2CC4)O3)cc1` [Example 14a, (S)-2-Phenyl-6H-1′-azaspiro[oxazolo[3,2-b][1,2,4]triazole-5,3′-bicyclo[2.2.2]octane]], the EC50 was 437 nM under setting [1] and 100 to 1000 nM under setting [2].
For `c1ccc(-c2nc3n(n2)C[C@@]2(CN4CCC2CC4)O3)cc1` [Example 14b, (R)-2-Phenyl-6H-1′-azaspiro[oxazolo[3,2-b][1,2,4]triazole-5,3′-bicyclo[2.2.2]octane]], in that order: 4.1 nM and under 100 nM.
Turning to `c1ccc(-c2cn3c(n2)O[C@@]2(CN4CCC2CC4)C3)cc1` [Example 21a, (S)-6-Phenyl-3H-1′-azaspiro[imidazo[2,1-b]oxazole-2,3′-bicyclo[2.2.2]octane]], the EC50 under setting [1] was determined as 10 nM and the EC50 under setting [2] is under 100 nM.
For the compound `c1ccc(-c2cn3c(n2)O[C@]2(CN4CCC2CC4)C3)cc1` [Example 21b, (R)-6-Phenyl-3H-1′-azaspiro[imidazo[2,1-b]oxazole-2,3′-bicyclo[2.2.2]octane]], the 50% effective concentration (EC50) runs as follows: under setting [1], 53 nM; under setting [2], under 100 nM.

As usually defined, the EC50 is the concentration at which the effect is half-maximal. Low values mean an effect from little substance, high ones a need for much substance.
